Results from US20050009840A1 (SUGEN, INC., priority 2003, published 2005).

Each molecule was assayed against T1, HGFR (Homo sapiens, UniProt P08581) (assay: HGFR continuous-coupled spectrophotometric assay). Conditions: Table 3, column 'Ki (μM) or I (%)': cells without % sign; read-out: Ki.
T1 construct: purchased Upstate 14-526
Assay type: biochemical

T1 sequence (P08581 974-1390 limits assumed): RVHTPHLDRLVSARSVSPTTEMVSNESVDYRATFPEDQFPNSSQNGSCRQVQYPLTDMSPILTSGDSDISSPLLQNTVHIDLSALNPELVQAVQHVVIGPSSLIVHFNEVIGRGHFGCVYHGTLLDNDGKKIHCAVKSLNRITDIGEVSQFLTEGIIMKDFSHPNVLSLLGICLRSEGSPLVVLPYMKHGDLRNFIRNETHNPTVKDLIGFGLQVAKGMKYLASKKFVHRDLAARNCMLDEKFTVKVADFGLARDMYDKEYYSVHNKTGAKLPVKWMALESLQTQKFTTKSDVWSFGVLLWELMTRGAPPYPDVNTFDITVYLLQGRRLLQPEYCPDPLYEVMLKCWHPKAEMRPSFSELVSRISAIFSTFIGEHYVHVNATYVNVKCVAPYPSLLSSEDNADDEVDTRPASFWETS

SMILES | Ki
CC(Oc1cc(-c2ccc(F)c(C#N)c2)cnc1N)c1c(Cl)ccc(F)c1Cl (centres unmarked) [Example I-544, 5-{6-Amino-5-[1-(2,6-dichloro-3-fluoro-phenyl)-ethoxy]-pyridin-3-yl}-2-fluoro-benzonitrile] | 0.091 µM
CC(Oc1cc(-c2ccc(C(=O)N3CCCCC3)cc2)cnc1N)c1c(Cl)ccc(F)c1Cl (centres unmarked) [Example I-546, (4-{6-Amino-5-[1-(2,6-dichloro-3-fluoro-phenyl)-ethoxy]-pyridin-3-yl}-phenyl)-pipendin-1-yl-methanone] | 0.057 µM
CC(Oc1cc(-c2ccc(C(=O)N3CCCC3)cc2)cnc1N)c1c(Cl)ccc(F)c1Cl (centres unmarked) [Example I-547, (4-{6-Amino-5-[1-(2,6-dichloro-3-fluoro-phenyl)-ethoxy]-pyridin-3-yl}-phenyl)-pyrrolidin-1-yl-methanone] | 0.067 µM
CC(Oc1cc(-c2ccc(CN3C[C@@H](C)N[C@@H](C)C3)cc2)cnc1N)c1c(Cl)ccc(F)c1Cl (some centres unmarked) [Example I-549, 3-[1-(2,6-Dichloro-3-fluoro-phenyl)-ethoxy]-5-[4-(dimethyl-piperazin-1-ylmethyl)-phenyl]-pyridin-2-ylamine] | 0.095 µM
CC(Oc1cc(-c2ccc(C(=O)N3C[C@@H](C)N[C@@H](C)C3)c(F)c2)cnc1N)c1c(Cl)ccc(F)c1Cl (some centres unmarked) [Example I-551, (4-{6-Amino-5-[1-(2,6-dichloro-3-fluoro-phenyl)-ethoxy]-pyridin-3-yl}-2-fluoro-phenyl)-(dimethyl-piperazin-1-yl)-methanone] | 0.091 µM
CC(Oc1cc(-c2ccc(C(=O)N3C[C@@H](C)N[C@@H](C)C3)cc2F)cnc1N)c1c(Cl)ccc(F)c1Cl (some centres unmarked) [Example I-552, (4-{6-Amino-5-[1-(2,6-dichloro-3-fluoro-phenyl)-ethoxy]-pyridin-3-yl}-3-fluoro-phenyl)-(dimethyl-piperazin-1-yl)-methanone] | 0.224 µM
Cc1cc(C(=O)N2C[C@@H](C)N[C@@H](C)C2)ccc1-c1cnc(N)c(OC(C)c2c(Cl)ccc(F)c2Cl)c1 (some centres unmarked) [Example I-553, (4-{6-Amino-5-[1-(2,6-dichloro-3-fluoro-phenyl)-ethoxy]-pyridin-3-yl)-3-methyl-phenyl)-(dimethyl-piperazin-1-yl)-methanone] | 0.259 µM
CC(Oc1cc(-c2ccc(C(=O)N3C[C@@H](C)O[C@@H](C)C3)cc2)cnc1N)c1c(Cl)ccc(F)c1Cl (stereo partly drawn) [Example I-554, (4-{6-Amino-5-[1-(2,6-dichloro-3-fluoro-phenyl)-ethoxy]-pyridin-3-yl}-phenyl)-((2R,6S)-2,6-dimethyl-morpholin-4-yl)-methanone] | 0.141 µM
COc1ccc(OC)c(-c2cnc(N)c(OC(C)c3c(Cl)ccc(F)c3Cl)c2)c1 (centres unmarked) [Example I-556, 3-[1-(2,6-Dichloro-3-fluoro-phenyl)-ethoxy]-5-(2,5-dimethoxy-phenyl)-pyridin-2-ylamine] | 0.575 µM
COc1ccc(-c2cnc(N)c(OC(C)c3c(Cl)ccc(F)c3Cl)c2)c(OC)c1 (centres unmarked) [Example I-557, 3-[1-(2,6-Dichloro-3-fluoro-phenyl)-ethoxy]-5-(2,4-dimethoxy-phenyl)-pyridin-2-ylamine] | 0.217 µM
COc1ccccc1-c1cnc(N)c(OC(C)c2c(Cl)ccc(F)c2Cl)c1 (centres unmarked) [Example I-566, 3-[1-(2,6-Dichloro-3-fluoro-phenyl)-ethoxy]-5-(2-methoxy-phenyl)-pyridin-2-ylamine] | 0.278 µM
CC(Oc1cc(-c2ccc(C(=O)N3CCOCC3)cc2)cnc1N)c1c(Cl)ccc(F)c1Cl (centres unmarked) [Example I-568, (4-{6-Amino-5-[1-(2,6-dichloro-3-fluoro-phenyl)-ethoxy]-pyridin-3-yl}-phenyl)-morpholin-4-yl-methanone] | 0.0525 µM
CC(Oc1cc(-c2ccc(C(=O)N3C[C@@H](C)N[C@@H](C)C3)c(Cl)c2)cnc1N)c1c(Cl)ccc(F)c1Cl (stereo partly drawn) [Example I-569, (4-{6-Amino-5-[1-(2,6-dichloro-3-fluoro-phenyl)-ethoxy]-pyridin-3-yl}-2-chloro-phenyl)-((3R,5S)-dimethyl-piperazin-1-yl)-methanone] | 0.0478 µM
Cc1cc(-c2cnc(N)c(OC(C)c3c(Cl)ccc(F)c3Cl)c2)ccc1C(=O)N1C[C@@H](C)N[C@@H](C)C1 (some centres unmarked) [Example I-570] | 0.225 µM
CC(Oc1cc(-c2ccc(CN3C[C@@H](C)O[C@@H](C)C3)cc2)cnc1N)c1c(Cl)ccc(F)c1Cl (stereo partly drawn) [Example I-571, 3-[1-(2,6-Dichloro-3-fluoro-phenyl)-ethoxy]-5-[4-((2R,6S)-2,6-dimethyl-morpholin-4-ylmethyl)-phenyl]-pyridin-2-ylamine] | 0.22 µM
CC(Oc1cc(-c2ccc(CN3CCOCC3)cc2)cnc1N)c1c(Cl)ccc(F)c1Cl (centres unmarked) [Example I-572, 3-[1-(2,6-Dichloro-3-fluoro-phenyl)-ethoxy]-5-(4-morpholin-4-ylmethyl-phenyl)-pyridin-2-ylamine] | 0.0554 µM
CC(Oc1cc(-c2ccc(C(=O)N3CCCN(C)CC3)cc2)cnc1N)c1c(Cl)ccc(F)c1Cl (centres unmarked) [Example I-603, (4-{6-Amino-5-[1-(2,6-dichloro-3-fluoro-phenyl)-ethoxy]-pyridin-3-yl}-phenyl)-(4-methyl-[1,4]-diazepan-1-yl)-methanone] | 0.0095 µM
CC(Oc1cc(-c2ccc(C(=O)N3CCCNCC3)cc2)cnc1N)c1c(Cl)ccc(F)c1Cl (centres unmarked) [Example I-604, (4-{6-Amino-5-[1-(2,6-dichloro-3-fluoro-phenyl)-ethoxy]-pyridin-3-yl}-phenyl)-[1,4]diazepan-1-yl-methanone] | 0.031 µM
CC(Oc1cc(-c2ccc(C(=O)N3CCNCC3)cc2)cnc1N)c1c(Cl)ccc(F)c1Cl (centres unmarked) [Example I-605, (4-{6-Amino-5-[1-(2,6-dichloro-3-fluoro-phenyl)-ethoxy]-pyridin-3-yl}-phenyl)-piperazin-1-yl-methanone] | 0.0475 µM
C=Cc1cnc(N)c(OC(C)c2c(Cl)ccc(F)c2Cl)c1 (centres unmarked) [Example I-606, 3-[1-(2,6-Dichloro-3-fluoro-phenyl)-ethoxy]-5-vinyl-pyridin-2-ylamine] | 0.655 µM

Same assay, conditions: cells prefixed Ki; read-out: Met Ki

SMILES | Ki
CC(Oc1cc(C#CC(=O)NC2CCCCC2)cnc1N)c1c(Cl)ccc(F)c1Cl (centres unmarked) [Example I-439, 3-{6-Amino-5-[1-(2,6-dichloro-3-fluoro-phenyl)-ethoxy]-pyridin-3-yl}-propynoic acid cyclohexylamide] | 0.46 µM
CC(C)NC(=O)C#Cc1cnc(N)c(OC(C)c2c(Cl)ccc(F)c2Cl)c1 (centres unmarked) [Example I-440, 3-{6-Amino-5-[1-(2,6-dichloro-3-fluoro-phenyl)-ethoxy]-pyridin-3-yl}-propynoic acid isopropylamide] | 0.43 µM
CC(Oc1cc(C#CC(C)(C)N)ccc1N)c1c(Cl)ccc(F)c1Cl (centres unmarked) [Example I-441, 4-(3-Amino-3-methyl-but-1-ynyl)-2-[1-(2,6-dichloro-3-fluoro-phenyl)-ethoxy]-phenylamine] | 1.06 µM
C=Cc1cnc(N)c(OC(C)c2c(Cl)ccc(F)c2Cl)c1 (centres unmarked) [Example I-461, 3-[1-(2,6-Dichloro-3-fluoro-phenyl)-ethoxy]-5-vinyl-pyridin-2-ylamine] | 0.68 µM
CC(Oc1cc(-c2cnn(CCN3CCCC3)c2)cnc1N)c1c(Cl)ccc(F)c1Cl (centres unmarked) [Example I-465, 3-[1-(2,6-Dichloro-3-fluoro-phenyl)-ethoxy]-5-[1-(2-pyrrolidin-1-yl-ethyl)-1H-pyrazol-4-yl]-pyridin-2-ylamine] | 0.34 µM
CC(Oc1cc(-c2cnn(CCN(C(C)C)C(C)C)c2)cnc1N)c1c(Cl)ccc(F)c1Cl (centres unmarked) [Example I-466, 3-[1-(2,6-Dichloro-3-fluoro-phenyl)-ethoxy]-5-[1-(2-diisopropylamino-ethyl)-1H-pyrazol-4-yl]-pyridin-2-yl amine] | 0.47 µM
CC(Oc1cc(-c2cnn(CCN3CCOCC3)c2)cnc1N)c1c(Cl)ccc(F)c1Cl (centres unmarked) [Example I-467, 3-[1-(2,6-Dichloro-3-fluoro-phenyl)-ethoxy]-5-[1-(2-morpholin-4-yl-ethyl)-1H-pyrazol-4-yl]-pyridin-2-ylamine] | 0.083 µM
CC(C)Oc1c(F)cccc1COc1cc(Br)cnc1N [Example I-472, 5-Bromo-3-(3-fluoro-2-isopropoxy-benzyloxy)-pyridin-2-ylamine] | 12.1 µM
CC(C)Oc1c(F)cccc1COc1cc(-c2ccc(C(=O)N3C[C@@H](C)N[C@@H](C)C3)cc2)cnc1N [Example I-473, {4-[6-Amino-5-(3-fluoro-2-isopropoxy-benzyloxy)-pyridin-3-yl]-phenyl}-((3R,5S)-3,5-dimethyl-piperazin-1-yl)-methanone] | 12.7 µM
COC(=O)COc1ccc(-c2cnc(N)c(OC(C)c3c(Cl)ccc(F)c3Cl)c2)cc1 (centres unmarked) [Example I-475, (4-{6-Amino-5-[1-(2,6-dichloro-3-fluoro-phenyl)-ethoxy]-pyridin-3-yl}-phenoxy)-acetic acid methyl ester] | 0.2 µM
CC(Oc1cc(-c2ccc(OCC(=O)O)cc2)cnc1N)c1c(Cl)ccc(F)c1Cl (centres unmarked) [Example I-476, (4-{6-Amino-5-[1-(2,6-dichloro-3-fluoro-phenyl)-ethoxy]-pyridin-3-yl}-phenoxy)-acetic acid] | 0.2 µM
CC(Oc1cc(-c2ccc(OCC(=O)N3C[C@@H](C)N[C@@H](C)C3)cc2)cnc1N)c1c(Cl)ccc(F)c1Cl (stereo partly drawn) [Example I-477, 2-(4-{6-Amino-5-[1-(2,6-dichloro-3-fluoro-phenyl)-ethoxy]-pyridin-3-yl}-phenoxy)-1-((3R,5S)-3,5-dimethyl-piperazin-1-yl)-ethanone] | 0.027 µM
CC(Oc1cc(-c2ccc(OCC(=O)N3CC[C@@H](O)C3)cc2)cnc1N)c1c(Cl)ccc(F)c1Cl (stereo partly drawn) [Example I-478, 2-(4-{6-Amino-5-[1-(2,6-dichloro-3-fluoro-phenyl)-ethoxy]-pyridin-3-yl}-phenoxy)-1-((R)-3-hydroxy-pyrrolidin-1-yl)-ethanone] | 0.041 µM
CC(Oc1cc(-c2ccc(OCC(=O)N3CCN(C(=O)OC(C)(C)C)CC3)cc2)cnc1N)c1c(Cl)ccc(F)c1Cl (centres unmarked) [Example I-479, 4-[2-(4-{6-Amino-5-[1-(2,6-dichloro-3-fluoro-phenyl)-ethoxy]-pyridin-3-yl}-phenoxy)-acetyl]-piperazine-1-carboxylic acid tert-butyl ester] | 0.16 µM
CC(Oc1cc(-c2ccc(OCCN3CCCC3)cc2)cnc1N)c1cccc(F)c1Cl (centres unmarked) [Example I-487, 3-[1-(2-Chloro-3-fluoro-phenyl)-ethoxy]-5-[4-(2-pyrrolidin-1-yl-ethoxy)-phenyl]-pyridin-2-ylamine] | 3.3 µM
